Measurements from paper PMC9848300, “Discovery of novel enasidenib analogues targeting inhibition of mutant isocitrate dehydrogenase 2 as antileukaemic agents” (Journal of Enzyme Inhibition and Medicinal Chemistry, 2023).

Key:
Format in all cases: cell-based
[1] = tested on: HCT-116; test: NCI 60 antitumor screening (single dose / five doses); settings: Homo sapiens; for inhibition at 10 µM: HCT-116 (colon cancer), single dose 10 μM, read-out: Growth inhibition percentage (GI %)
[2] = tested on: DU-145; test: as above; settings: Homo sapiens; for inhibition at 10 µM: DU-145 (prostate cancer), single dose 10 μM, read-out: Growth inhibition percentage (GI %)
[3] = tested on: MALME-3M; test: as above; settings: Homo sapiens; for inhibition at 10 µM: MALME-3M (melanoma), single dose 10 μM, read-out: Growth inhibition percentage (GI %)
[4] = tested on: 60 human subpanel cancer cell lines; test: NCI 60 antitumor screening, mean over the panel (single dose); settings: mean over 60 cancer cell lines, single dose 10 μM
Method: (§1) Initially, the anticancer effects of target compounds have been assessed at a single (10 μM) dose. The obtained data have been reported as mean-graph of the percent growth (G%) of the treated cancer cells. Percentage growth inhibition (GI%) is calculated (100 − G%) and pronounced in Table 1. […] Target compounds in series (III) with manipulated linkers disclosed lower potency. Superiorly, eight s-triazine derivatives from the three series (6a, 6c, 6d, 7a, 7g, 7i, 7l, and 8b) have shown potent broad-spectrum anticancer activity against most the examined cell lines, whereas most of the remaining triazine derivatives, 20 derivatives, have exerted selective anti-proliferative actions towards certain cancer cell lines (Supplementary).
(§2) The antitumor screening was performed for 60 human cancer cell lines under the protocol of NCI (www.dtp.nci.nih.gov), the Drug Evaluation Branch, Bethesda, MD. All submitted compounds were nominated based on the degree of structural diversity and computer modelling techniques for evaluation of their anticancer activity. The screening process for antineoplastic activity passes through two successive levels, starting with the assessment of target compounds at a single dose of 10 μM against 60 cancer cell lines on nine types of human tumours. These experiments were done on a triplicate following. The output from the single‐dose screening was covered as a mean graph, and then, analysed by the COMPARE program. Finally, the compounds which disclosed subpanel cancer cell growth (G %) equal to or less than 10% in at least eight cancer cell lines get to pass the assessment against the 60 cell lines at five doses (0.01–100 μM). By using GraphPad Prism version 9.0 (Graphpad Software Inc., La Jolla, CA), GI50, TGI, as well as LC50 dose‐response parameters were computed and presented for each compound (Supplementary information)[55–57].

[5] = tested on: SR; test: NCI 60 antitumor screening (single dose / five doses); settings: Homo sapiens; for inhibition at 10 µM: SR (leukaemia), single dose 10 μM, read-out: Growth inhibition percentage (GI %)
[6] = tested on: SK-MEL-28; test: as above; settings: Homo sapiens; for inhibition at 10 µM: SK-MEL-28 (melanoma), single dose 10 μM, read-out: Growth inhibition percentage (GI %)
[7] = tested on: KM 12; test: NCI 60 antitumor screening (single dose); settings: Homo sapiens, KM12; KM 12 (colon cancer), single dose 10 μM; read-out: Growth inhibition percentage (GI %)
Method: as §1, §2

[8] = tested on: SK-OV-3; test: NCI 60 antitumor screening (single dose); settings: Homo sapiens; SK-OV-3 (ovarian cancer), single dose 10 μM; read-out: Growth inhibition percentage (GI %)
Method: as §1, §2

[9] = tested on: MCF7; test: NCI 60 antitumor screening (single dose); settings: Homo sapiens; MCF7 (breast cancer), single dose 10 μM; read-out: Growth inhibition percentage (GI %)
Method: as §1, §2

[10] = tested on: NCI-H322M; test: NCI 60 antitumor screening (single dose); settings: Homo sapiens; NCI-H322M (non-small cell lung cancer), single dose 10 μM; read-out: Growth inhibition percentage (GI %)
Method: as §1, §2

[11] = tested on: A549/ATCC; test: NCI 60 antitumor screening (single dose); settings: Homo sapiens; A549/ATCC (non-small cell lung cancer), single dose 10 μM; read-out: Growth inhibition percentage (GI %)
Method: as §1, §2

[12] = tested on: M14; test: NCI 60 antitumor screening (single dose); settings: Homo sapiens; M14 (melanoma), single dose 10 μM; read-out: Growth inhibition percentage (GI %)
Method: as §1, §2

[13] = tested on: CAKI-1; test: NCI 60 antitumor screening (single dose); settings: Homo sapiens; CAKI-1 (renal cancer), single dose 10 μM; read-out: Growth inhibition percentage (GI %)
Method: as §1, §2

[14] = tested on: NCI-H226; test: NCI 60 antitumor screening (single dose); settings: Homo sapiens; NCI-H226 (non-small cell lung cancer), single dose 10 μM; read-out: Growth inhibition percentage (GI %)
Method: as §1, §2

[15] = tested on: OVCAR-5; test: NCI 60 antitumor screening (single dose); settings: Homo sapiens; OVCAR-5 (ovarian cancer), single dose 10 μM; read-out: Growth inhibition percentage (GI %)
Method: as §1, §2

[16] = tested on: NCI-H522; test: NCI 60 antitumor screening (single dose); settings: Homo sapiens; NCI-H522 (non-small cell lung cancer), single dose 10 μM; read-out: Growth inhibition percentage (GI %)
Method: as §1, §2

[17] = tested on: HS 578T; test: NCI 60 antitumor screening (single dose); settings: Homo sapiens; HS 578T (breast cancer), single dose 10 μM; read-out: Growth inhibition percentage (GI %)
Method: as §1, §2

[18] = tested on: SF-268; test: NCI 60 antitumor screening (single dose); settings: Homo sapiens; SF-268 (CNS cancer), single dose 10 μM; read-out: Growth inhibition percentage (GI %)
Method: as §1, §2

[19] = tested on: OVCAR-4; test: NCI 60 antitumor screening (single dose); settings: Homo sapiens; OVCAR-4 (ovarian cancer), single dose 10 μM; read-out: Growth inhibition percentage (GI %)
Method: as §1, §2

[20] = tested on: U251; test: NCI 60 antitumor screening (single dose); settings: Homo sapiens, U-251; U251 (CNS cancer), single dose 10 μM; read-out: Growth inhibition percentage (GI %)
Method: as §1, §2

[21] = tested on: OVCAR-3; test: NCI 60 antitumor screening (single dose); settings: Homo sapiens; OVCAR-3 (ovarian cancer), single dose 10 μM; read-out: Growth inhibition percentage (GI %)
Method: as §1, §2

[22] = tested on: NCI-H23; test: NCI 60 antitumor screening (single dose); settings: Homo sapiens; NCI-H23 (non-small cell lung cancer), single dose 10 μM; read-out: Growth inhibition percentage (GI %)
Method: as §1, §2

[23] = tested on: SNB-19; test: NCI 60 antitumor screening (single dose); settings: Homo sapiens; SNB-19 (CNS cancer), single dose 10 μM; read-out: Growth inhibition percentage (GI %)
Method: as §1, §2

[24] = tested on: SK-MEL-2; test: NCI 60 antitumor screening (single dose / five doses); settings: Homo sapiens; for inhibition at 10 µM: SK-MEL-2 (melanoma), single dose 10 μM, read-out: Growth inhibition percentage (GI %)
[25] = tested on: MDA-MB-435; test: as above; settings: Homo sapiens; for inhibition at 10 µM: MDA-MB-435 (melanoma), single dose 10 μM, read-out: Growth inhibition percentage (GI %)
[26] = tested on: SF-539; test: as above; settings: Homo sapiens; for inhibition at 10 µM: SF-539 (CNS cancer), single dose 10 μM, read-out: Growth inhibition percentage (GI %)
[27] = tested on: T-47D; test: as above; settings: Homo sapiens, T47D; for inhibition at 10 µM: T-47D (breast cancer), single dose 10 μM, read-out: Growth inhibition percentage (GI %)

SMILES | inhibition at 10 µM [1] [%] | inhibition at 10 µM [2] [%] | inhibition at 10 µM [3] [%] | Mean GI % [4] [%] | inhibition at 10 µM [5] [%] | inhibition at 10 µM [6] [%] | inhibition at 10 µM [7] [%] | inhibition at 10 µM [8] [%] | inhibition at 10 µM [9] [%] | inhibition at 10 µM [10] [%] | inhibition at 10 µM [11] [%] | inhibition at 10 µM [12] [%] | inhibition at 10 µM [13] [%] | inhibition at 10 µM [14] [%] | inhibition at 10 µM [15] [%] | inhibition at 10 µM [16] [%] | inhibition at 10 µM [17] [%] | inhibition at 10 µM [18] [%] | inhibition at 10 µM [19] [%] | inhibition at 10 µM [20] [%] | other results
Oc1ccccc1/C=N/Nc1nc(N/N=C/c2ccccc2O)nc(N2CCOCC2)n1 [compound 6a, 2-[(1e)-(2-{4-[(E)-2-[(2-Hydroxyphenyl)methylidene]hydrazin-1-yl]-6-(morpholin-4-yl)-1,3,5-triazin-2-yl}hydrazin-1-ylidene)methyl]phenol] | 80.8 | 64.5 | 47.4 | 66.07 | 84 | 72 | 47.3 | 88.1 | 60 | 55.5 | 87 | 62.4 | 95.4 | 76.7 | 63 | 39.1 | 53 | 27.7 | 88.2 | 78 | GI50 ([1]; HCT-116, five doses (0.01–100 μM), read-out: GI50): 0.82 µM; GI50 ([2]; DU-145, five doses (0.01–100 μM), read-out: GI50): 6.09 µM; GI50 ([3]; MALME-3M, five doses (0.01–100 μM), read-out: GI50): 8.69 µM; GI50 ([5]; SR, five doses (0.01–100 μM), read-out: GI50): 0.32 µM; GI50 ([6]; SK-MEL-28, five doses (0.01–100 μM), read-out: GI50): 3.2 µM; inhibition at 10 µM [21]: 66.4%; inhibition at 10 µM [22]: 58.5%; inhibition at 10 µM [23]: 58.3%; inhibition at 10 µM [24]: 28%; GI50 ([24]; SK-MEL-2, five doses (0.01–100 μM)): 6.06 µM; inhibition at 10 µM [25]: 41.1%; GI50 ([25]; MDA-MB-435, five doses (0.01–100 μM), read-out: GI50): 9.53 µM; inhibition at 10 µM [26]: 48.2%; GI50 ([26]; SF-539, five doses (0.01–100 μM), read-out: GI50): 7.29 µM; inhibition at 10 µM [27]: 53.9%; GI50 ([27]; T-47D, five doses (0.01–100 μM), read-out: GI50): 3.34 µM
O=C1Nc2ccc(Cl)cc2/C1=N\Nc1nc(N/N=C2/C(=O)Nc3ccc(Cl)cc32)nc(N2CCOCC2)n1 [compound 8b, (3E)-5-Chloro-3-[2–(4-{2-[(3E)-5-chloro-2-oxo-2,3-dihydro-1H-indol-3-ylidene]hydrazin-1-yl}6-(morpholin-4-yl)-1,3,5-triazin-2-yl)hydrazin-1-ylidene]-2,3-dihydro-1H-indol-2-one] | 54.6 | 11.6 | 43.6 | 47.89 | 70.8 | 45 | 18.8 | 44.5 | 56.9 | 21.9 | -1.37 | 22.5 | 28 | 42.7 | 4.93 | 94.9 | 108 | 50.9 | 21.3 | 96.2 | inhibition at 10 µM [21]: 47.3%; inhibition at 10 µM [22]: 82.8%; inhibition at 10 µM [23]: 109%; inhibition at 10 µM [24]: 34.7%; inhibition at 10 µM [25]: 36.5%; inhibition at 10 µM [26]: 84%; inhibition at 10 µM [27]: 70.7%
Oc1ccccc1/C=N/Nc1nc(N/N=C/c2ccccc2O)nc(N2CCCCC2)n1 [compound 7a, 2-[(1e)-(2-{4-[(E)-2-[(2-Hydroxyphenyl)methylidene]hydrazin-1-yl]-6-(piperidin-1-yl)-1,3,5-triazin-2-yl}hydrazin-1-ylidene)methyl] phenol] | 22 | 45.2 | 33.1 | 45.09 | 60.2 | 36.6 | 52.5 | 12 | 64.3 | 41.1 | 52.2 | 53.6 | 24.5 | 18.2 | 28.4 | 52.5 | 23.4 | 45.7 | 70.9 | 49.6 | inhibition at 10 µM [21]: 80.8%; inhibition at 10 µM [22]: 44.2%; inhibition at 10 µM [23]: 44%; inhibition at 10 µM [24]: 30.8%; inhibition at 10 µM [25]: 30.9%; inhibition at 10 µM [26]: 40.6%; inhibition at 10 µM [27]: 51.8%
Fc1cccc(/C=N/Nc2nc(N/N=C/c3cccc(F)c3)nc(N3CCOCC3)n2)c1 [compound 6e, 2,4-Bis[(E)-2-[(3-Fluorophenyl)methylidene]hydrazin-1-yl]-6-(morpholin-4-yl)-1,3,5-triazine] | 24.6 | 40.5 | -44 | 15.60 | 60.2 | 10.1 | 0.3 | -17.7 | 19.3 | 3.82 | 6.5 | 100 | 11.3 | 5.56 | -3.81 | 4.23 | -0.4 | 4.91 | 0.54 | 23.8 | inhibition at 10 µM [21]: 19.3%; inhibition at 10 µM [22]: -1.55%; inhibition at 10 µM [23]: 1.85%; inhibition at 10 µM [24]: 2.51%; inhibition at 10 µM [25]: 1.89%; inhibition at 10 µM [26]: 12.6%; inhibition at 10 µM [27]: 10.3%
